Results taken from PubChem BioAssay AID2060497 (Molecular Pharmacology Branch, DTP, NCI, 2025).

Test system: 317291-083-R-J1-PDC complex spheroids, viability
Experiment: Anticancer human tumor 317291-083-R-J1-PDC patient-derived soft tissue sarcoma cell line growth inhibition [GQUAD]
Conditions: for IC50: curve of first compound; for viability, T/C: stronger effect = lower value
Outline: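 Multi-cell-type spheroids of tumor cells with HUVEC and mesenchymal stem cells, treated with drug combinations. Concentrations descend in half-log steps from near clinical Cmax, or from 10 microM where Cmax is unknown; viability read-out.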

[1] = second compound 0.0316 µM, first compound 0.0316 µM
[2] = second compound 0.0316 µM, first compound 0.1 µM
[3] = second compound 0.0316 µM, first compound 0.316 µM
[4] = second compound 0.0316 µM, first compound 1 µM
[5] = second compound 0.0316 µM, first compound 3.16 µM
[6] = second compound 0.0316 µM, first compound 10 µM
[7] = second compound 0.1 µM, first compound 0.0316 µM
[8] = second compound 0.1 µM, first compound 0.1 µM
[9] = second compound 0.1 µM, first compound 0.316 µM
[10] = second compound 0.1 µM, first compound 1 µM
[11] = second compound 0.1 µM, first compound 3.16 µM
[12] = second compound 0.1 µM, first compound 10 µM
[13] = second compound 0.316 µM, first compound 0.0316 µM
[14] = second compound 0.316 µM, first compound 0.1 µM
[15] = second compound 0.316 µM, first compound 0.316 µM
[16] = second compound 0.316 µM, first compound 1 µM
[17] = second compound 0.316 µM, first compound 3.16 µM
[18] = second compound 0.316 µM, first compound 10 µM
[19] = second compound 1 µM, first compound 0.0316 µM
[20] = second compound 1 µM, first compound 0.1 µM
[21] = second compound 1 µM, first compound 0.316 µM
[22] = second compound 1 µM, first compound 1 µM
[23] = second compound 1 µM, first compound 3.16 µM
[24] = second compound 1 µM, first compound 10 µM
[25] = second compound 3.16 µM, first compound 0.0316 µM
[26] = second compound 3.16 µM, first compound 0.1 µM
[27] = second compound 3.16 µM, first compound 0.316 µM
[28] = second compound 3.16 µM, first compound 1 µM
[29] = second compound 3.16 µM, first compound 3.16 µM
[30] = second compound 3.16 µM, first compound 10 µM
[31] = second compound 10 µM, first compound 0.0316 µM
[32] = second compound 10 µM, first compound 0.1 µM
[33] = second compound 10 µM, first compound 0.316 µM
[34] = second compound 10 µM, first compound 1 µM
[35] = second compound 10 µM, first compound 3.16 µM
[36] = second compound 10 µM, first compound 10 µM
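Note: spheroids exposed to compounds for one week before readout.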
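Throughout, for viability, T/C: percent viability relative to DMSO vehicle wells taken as 100%.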

## C=CC(=O)N1CCN(c2nc(=O)n(-c3c(C)ccnc3C(C)C)c3nc(-c4c(O)cccc4F)c(F)cc23)C(C)C1 (stereo not given) + CN(C)c1ccc(Nc2c3ccc(NC(=O)CCN4CCCC4)cc3nc3cc(NC(=O)CCN4CCCC4)ccc23)cc1
Second compound 0.0316 µM
  IC50: > 10 µM
Second compound 0.1 µM
  IC50: > 10 µM
Second compound 0.316 µM
  IC50: > 10 µM
Second compound 1 µM
  IC50: 1.42 µM
Second compound 3.16 µM
  IC50: < 0.0316 µM
Second compound 10 µM
  IC50: < 0.0316 µM
[1]
  viability, T/C: 105%
[2]
  viability, T/C: 90.8%
[3]
  viability, T/C: 114%
[4]
  viability, T/C: 113%
[5]
  viability, T/C: 98.4%
[6]
  viability, T/C: 65.2%
[7]
  viability, T/C: 115%
[8]
  viability, T/C: 100%
[9]
  viability, T/C: 99.1%
[10]
  viability, T/C: 107%
[11]
  viability, T/C: 91.8%
[12]
  viability, T/C: 70.8%
[13]
  viability, T/C: 81.5%
[14]
  viability, T/C: 69.9%
[15]
  viability, T/C: 73.2%
[16]
  viability, T/C: 91.2%
[17]
  viability, T/C: 82.9%
[18]
  viability, T/C: 51.4%
[19]
  viability, T/C: 57%
[20]
  viability, T/C: 44.1%
[21]
  viability, T/C: 52.3%
[22]
  viability, T/C: 81.2%
[23]
  viability, T/C: 30.2%
[24]
  viability, T/C: 22.5%
[25]
  viability, T/C: 32.1%
[26]
  viability, T/C: 22%
[27]
  viability, T/C: 29.2%
[28]
  viability, T/C: 51.6%
[29]
  viability, T/C: 42.4%
[30]
  viability, T/C: 21.1%
[31]
  viability, T/C: 13.5%
[32]
  viability, T/C: 15.1%
[33]
  viability, T/C: 8.38%
[34]
  viability, T/C: 8.02%
[35]
  viability, T/C: 6.86%
[36]
  viability, T/C: 23.1%

## O=C(c1cc(Cc2n[nH]c(=O)c3ccccc23)ccc1F)N1CCN(C(=O)C2CC2)CC1 + Cc1cnc(CNC(=O)c2c(=O)c3ccc(N4CCCN(C)CC4)nc3n3c2sc2ccccc23)cn1
Second compound 0.0316 µM
  IC50: > 10 µM
Second compound 0.1 µM
  IC50: 2.17 µM
Second compound 0.316 µM
  IC50: < 0.0316 µM
Second compound 1 µM
  IC50: < 0.0316 µM
Second compound 3.16 µM
  IC50: < 0.0316 µM
Second compound 10 µM
  IC50: < 0.0316 µM
[1]
  viability, T/C: 101%
[2]
  viability, T/C: 92.4%
[3]
  viability, T/C: 89.7%
[4]
  viability, T/C: 77.5%
[5]
  viability, T/C: 67.7%
[6]
  viability, T/C: 59.3%
[7]
  viability, T/C: 88.3%
[8]
  viability, T/C: 72.7%
[9]
  viability, T/C: 64.5%
[10]
  viability, T/C: 57.6%
[11]
  viability, T/C: 53.3%
[12]
  viability, T/C: 31.2%
[13]
  viability, T/C: 44.7%
[14]
  viability, T/C: 43.4%
[15]
  viability, T/C: 57.1%
[16]
  viability, T/C: 33.8%
[17]
  viability, T/C: 39.2%
[18]
  viability, T/C: 46%
[19]
  viability, T/C: 30%
[20]
  viability, T/C: 38.5%
[21]
  viability, T/C: 51.5%
[22]
  viability, T/C: 26.6%
[23]
  viability, T/C: 24.2%
[24]
  viability, T/C: 19.6%
[25]
  viability, T/C: 17.2%
[26]
  viability, T/C: 14.6%
[27]
  viability, T/C: 64.8%
[28]
  viability, T/C: 39.8%
[29]
  viability, T/C: 32.8%
[30]
  viability, T/C: 14.8%
[31]
  viability, T/C: 31.1%
[32]
  viability, T/C: 16.8%
[33]
  viability, T/C: 19.1%
[34]
  viability, T/C: 36.2%
[35]
  viability, T/C: 20.5%
[36]
  viability, T/C: 15.2%

## C=CCn1c(=O)c2cnc(Nc3ccc(N4CCN(C)CC4)cc3)nc2n1-c1cccc(C(C)(C)O)n1 + Cc1[nH]c2ccc(F)cc2c1-c1nc2c3cccnc3c3ncccc3c2[nH]1
Second compound 0.0316 µM
  IC50: 0.119 µM
Second compound 0.1 µM
  IC50: 0.137 µM
Second compound 0.316 µM
  IC50: 0.058 µM
Second compound 1 µM
  IC50: 0.0395 µM
Second compound 3.16 µM
  IC50: < 0.0316 µM
Second compound 10 µM
  IC50: < 0.0316 µM
[1]
  viability, T/C: 80.5%
[2]
  viability, T/C: 55.3%
[3]
  viability, T/C: 21.7%
[4]
  viability, T/C: 17.8%
[5]
  viability, T/C: 8.57%
[6]
  viability, T/C: 9.56%
[7]
  viability, T/C: 87%
[8]
  viability, T/C: 59.7%
[9]
  viability, T/C: 24.4%
[10]
  viability, T/C: 12.8%
[11]
  viability, T/C: 12%
[12]
  viability, T/C: 11.9%
[13]
  viability, T/C: 61.1%
[14]
  viability, T/C: 40.1%
[15]
  viability, T/C: 17.3%
[16]
  viability, T/C: 11.3%
[17]
  viability, T/C: 10.9%
[18]
  viability, T/C: 8.81%
[19]
  viability, T/C: 56%
[20]
  viability, T/C: 25%
[21]
  viability, T/C: 15.8%
[22]
  viability, T/C: 7.15%
[23]
  viability, T/C: 8.02%
[24]
  viability, T/C: 10.3%
[25]
  viability, T/C: 25.2%
[26]
  viability, T/C: 12.5%
[27]
  viability, T/C: 9.21%
[28]
  viability, T/C: 5.63%
[29]
  viability, T/C: 8.76%
[30]
  viability, T/C: 6.68%
[31]
  viability, T/C: 33.5%
[32]
  viability, T/C: 21.5%
[33]
  viability, T/C: 13.4%
[34]
  viability, T/C: 9.85%
[35]
  viability, T/C: 8.36%
[36]
  viability, T/C: 9.58%

## COc1cccc2c1C(=O)c1c(O)c3c(c(O)c1C2=O)CC(O)(C(=O)CO)CC3OC1CC(N)C(O)C(C)O1 (stereo not given) + Cc1cnc(CNC(=O)c2c(=O)c3ccc(N4CCCN(C)CC4)nc3n3c2sc2ccccc23)cn1
Second compound 0.0316 µM
  IC50: 0.0725 µM
Second compound 0.1 µM
  IC50: 0.0471 µM
Second compound 0.316 µM
  IC50: < 0.0316 µM
Second compound 1 µM
  IC50: < 0.0316 µM
Second compound 3.16 µM
  IC50: < 0.0316 µM
Second compound 10 µM
  IC50: < 0.0316 µM
[1]
  viability, T/C: 84%
[2]
  viability, T/C: 34%
[3]
  viability, T/C: 21.1%
[4]
  viability, T/C: 10.7%
[5]
  viability, T/C: 1.84%
[6]
  viability, T/C: 4.21%
[7]
  viability, T/C: 62.7%
[8]
  viability, T/C: 24%
[9]
  viability, T/C: 18.2%
[10]
  viability, T/C: 8.39%
[11]
  viability, T/C: 3.34%
[12]
  viability, T/C: 2.66%
[13]
  viability, T/C: 45.8%
[14]
  viability, T/C: 35%
[15]
  viability, T/C: 22.1%
[16]
  viability, T/C: 6.47%
[17]
  viability, T/C: 2.05%
[18]
  viability, T/C: 2.05%
[19]
  viability, T/C: 38.1%
[20]
  viability, T/C: 18.4%
[21]
  viability, T/C: 15.9%
[22]
  viability, T/C: 12.2%
[23]
  viability, T/C: 1.05%
[24]
  viability, T/C: 1.27%
[25]
  viability, T/C: 18.5%
[26]
  viability, T/C: 15.8%
[27]
  viability, T/C: 11.6%
[28]
  viability, T/C: 0.53%
[29]
  viability, T/C: 0.36%
[30]
  viability, T/C: 1.14%
[31]
  viability, T/C: 16.5%
[32]
  viability, T/C: 15.6%
[33]
  viability, T/C: 20.6%
[34]
  viability, T/C: 20.7%
[35]
  viability, T/C: 0.34%
[36]
  viability, T/C: 0.34%

## CC1COCCN1c1cc(-c2ccnn2C)c2ccnc(-c3ccn[nH]3)c2n1 (stereo not given) + CN(C)c1ccc(Nc2c3ccc(NC(=O)CCN4CCCC4)cc3nc3cc(NC(=O)CCN4CCCC4)ccc23)cc1
Second compound 0.0316 µM
  IC50: 0.0647 µM
Second compound 0.1 µM
  IC50: 0.0668 µM
Second compound 0.316 µM
  IC50: 0.0424 µM
Second compound 1 µM
  IC50: < 0.0316 µM
Second compound 3.16 µM
  IC50: < 0.0316 µM
Second compound 10 µM
  IC50: < 0.0316 µM
[1]
  viability, T/C: 87.2%
[2]
  viability, T/C: 27.4%
[3]
  viability, T/C: 17%
[4]
  viability, T/C: 13.8%
[5]
  viability, T/C: 13.8%
[6]
  viability, T/C: 14.2%
[7]
  viability, T/C: 84.5%
[8]
  viability, T/C: 31.4%
[9]
  viability, T/C: 14.9%
[10]
  viability, T/C: 13.7%
[11]
  viability, T/C: 12.1%
[12]
  viability, T/C: 14%
[13]
  viability, T/C: 59.1%
[14]
  viability, T/C: 24.3%
[15]
  viability, T/C: 15.2%
[16]
  viability, T/C: 11.2%
[17]
  viability, T/C: 15.5%
[18]
  viability, T/C: 19.9%
[19]
  viability, T/C: 41.1%
[20]
  viability, T/C: 17%
[21]
  viability, T/C: 33.6%
[22]
  viability, T/C: 10.3%
[23]
  viability, T/C: 7.25%
[24]
  viability, T/C: 6.88%
[25]
  viability, T/C: 25.8%
[26]
  viability, T/C: 7.15%
[27]
  viability, T/C: 5.62%
[28]
  viability, T/C: 4.31%
[29]
  viability, T/C: 3.37%
[30]
  viability, T/C: 2.05%
[31]
  viability, T/C: 3.62%
[32]
  viability, T/C: 5.3%
[33]
  viability, T/C: 7.04%
[34]
  viability, T/C: 4%
[35]
  viability, T/C: 1.52%
[36]
  viability, T/C: 0.66%
